Source: patent publication US20190211317A1, “PEPTIDES AND NANOPARTICLES FOR INTRACELLULAR DELIVERY OF GENOME-EDITING MOLECULES” (Aadigen, LLC, priority 2016, published 2019)
Read-outs that look alike come from different tables or passages of the source.

How the values were obtained:
[1] = system: primary human fibroblasts and primary human hepatocytes; test: Toxicity of ADGN-100a/CAS9/gRNA in primary cells (MTT assay); format: cell-based; conditions: both primary cell types
Method: Cytotoxic response was measured 24 hours later by colorimetric MTT assay (Sigma, Germany). For MTT assay, cell culture medium was removed and replaced with PBS containing 2.5 mg/ml of MTT for 4 hours.

U2OS cells = conditions: CAS9 mRNA 0.2 μg and 0.5 μg; 20:1; 72 h
Method: U2OS cells were cultured in Dulbecco's Modified Eagle's Medium (DMEM), supplemented with 2 mM glutamine, 1% antibiotics (streptomycin 10,000 μg/mL, penicillin, 10,000 IU/mL) and 10% (w/v) foetal calf serum (FCS), at 37° C. in a humidified atmosphere containing 5% CO2. […] After 20 min incubation at 37° C., 1 mL of fresh DMEM containing 16% FCS was added in order to reach a final FCS concentration of 10%, without removing the overlay of complexes. Cells were returned to the incubator for 72 hours. CAS9 expression level was quantified by western blot on protein extract using antibody against CRISPR/Cas9 (Diagenode cat. No. C15200223).

[2] = system: endogenous EMX1 gene in U2OS, HEPG2 cells and primary human fibroblasts; test: EMX1 editing from CPP delivery of CAS9-expressing plasmid and gRNA (T7E1); format: cell-based; conditions: the three cell types
Method: EMX1-targeting gRNAs were prepared as described above. CPP/plasmid/gRNA complexes were prepared by mixing 0.5 μg of a CAS9-expressing plasmid (Addgene MLM3639-Plasmid #42252) and 5 μg gRNA with CPP at a 20:1 molar ratio of CPP to nucleic acid (plasmid+gRNA) and incubating for 30 min at 37° C. prior to cell transfection. Suspension and adherent cells were transfected according to the protocols described in Example 13a. Lipofectamine 2000- and RNAiMAX-mediated delivery methods (Invitrogen Thermo Fisher France) were used as controls. EMX1 gene editing was analyzed at day 3 and day 6 by T7E1 assay and quantified using a Fragment Analyzer System.

[3] = Particle size, polydispersity and zeta potential with different cargoes (Zetasizer NANO ZS P); format: physicochemical; conditions: 20:1
Method: The CPP/CAS9-protein, CPP/CAS9-protein/sgRNA, CPP/CAS9-mRNA, CPP/CAS-mRNA/sgRNA particles were characterized; the mean size, polydispersity, and zeta potential were measured with a Zetasizer NANO ZS P apparatus (Malvern Ltd).
The mean size and the polydispersity of the CCP/cargo complexes were determined at 25° C. for 5 min per measurement and zeta potential was measured with a Zetasizer NANO ZS P apparatus (Malvern Ltd).

[4] = system: U2OS, HEPG2, K562 cells and primary human fibroblasts; test: CAS9 protein expression after CPP delivery of CAS9 mRNA (ELISA); format: cell-based; conditions: day 3
Method: CPP/CAS9 mRNA complexes were formed by mixing the CAS9 mRNA (0.5 μg) with CPP at a 20:1 molar ratio of CPP:CAS9 mRNA and incubating for 30 min at 37° C. prior to cell transfection. Cells were transfected according to optimized protocols for either adherent or suspension cell lines.
Human primary fibroblasts were freshly obtained and grown in flasks pre-coated with a gelatin-based coating solution and incubated in Culture Complete Growth Medium for 3 days before expansion and treatment. U2OS cells were cultured in Dulbecco's Modified Eagle's Medium (DMEM), supplemented with 2 mM glutamine, 1% antibiotics (streptomycin 10,000 μg/mL, penicillin, 10,000 IU/mL) and 10% (w/v) foetal calf serum (FCS), at 37° C. in a humidified atmosphere containing 5% CO2. 35 mm dishes seeded with 150,000 cells the day prior to transfection were grown to 50-60% confluence and set up to be at about 70% confluences at the time of transfection. Before transfection, cells were washed with DMEM (2×) followed by PBS (1×). Cells were then overlaid with 0.2 ml of complex solution (16 μl CPP/Cargo complex in water+184 μl OPTiMEM without antibiotics), mixed gently, and incubated for 10 min at 37° C. 0.8 mL of fresh OPTiMEM or DMEM was then added and cells were incubated for 20 min at 37° C. 2 mL of complete OPTiMEM (high glucose) or DMEM containing 11.4% FCS was then added in order to reach a final FCS concentration of 10%, without removing the overlay of CPP/Cargo complexes. Cells were returned to the incubator (37° C., 5% CO2) and assayed at 72 hours post transfection.
K562 and HEpG2 cells were set up to be at about 70% confluence at the time of transfection. The cells were maintained in high glucose DMEM media with 10% serum. Before transfection, cells were harvested by centrifugation, then washed with DMEM (2×) followed by PBS (1×). Cells were then resuspended in 0.2 ml of complex solution (16 μl CPP/Cargo complex in water+184 μl OPTiMEM without antibiotics), mixed gently, and incubated for 10 min at 37° C. 0.8 mL of fresh OPTiMEM was then added and cells were incubated for 20 min at 37° C. 2 mL of complete OPTiMEM (high glucose) containing 11.4% FCS was then added in order to reach a final FCS concentration of 10%, without removing the overlay of CPP/Cargo complexes. Cells were returned to the incubator (37° C., 5% CO2) and assayed at 72 hours post transfection.
RNAiMAX lipid-based delivery (Invitrogen Thermo Fisher France) was used as a control and transfections were performed following the manufacturer's instructions. CAS9 expression level was analyzed at multiple time points over a period of 10 days as determined by ELISA on protein extracts using antibodies against CRISPR/Cas9 obtained from Diagenode (Diagenode cat. No. C15200223) and ABCAM (clone 7A9-ab191468).

[5] = system: endogenous EMX1 and HPRT genes in primary human cardiac fibroblasts and primary human hepatocytes; test: EMX1 and HPRT editing in primary human cells (T7E1 assay); format: cell-based; conditions: for mean indel frequencies: both genes
Method: ADGN-100 peptides were also evaluated for cellular delivery of multiple RGEN:gRNA complexes targeting endogenous EMX1 and HPRT genes in primary human cardiac fibroblasts and primary human hepatocytes. The CAS9/gRNA complexes contained either CAS9 protein or mRNA encoding the CAS9 protein and a gRNA targeting either EMX1 or HPRT. Human primary cardiac fibroblasts and human primary hepatocytes were freshly obtained and grown in flasks pre-coated with a gelatin-based coating solution and incubated in Culture Complete Growth Medium for 3 days before expansion and treatment. […] Non-Homologous End Joining (NHEJ) was analyzed 72 hours after transfection by the T7E1 assay and compared to delivery using RNAiMAX lipid methods. The toxicity was analyzed for all conditions using the MTT assay.
CAS9 protein was preloaded with purified gRNA-GFP at a molar ratio of 1:1 and incubated for 10 min prior to forming complexes with ADGN peptides.
The following protocol was used for both cell types. Cells were cultured to about 70% confluence at the time of transfection. Cells were maintained in high glucose DMEM media with 10% serum. Before transfection, cells were washed with DMEM twice and resuspended in 0.2 ml of complex solution (16 μl complex+184 μl OPTiMEM) mixed gently and incubated for 10 min at 37° C. 0.8 mL of fresh OPTiMEM (high glucose) was added and cells were incubated for 20 min at 37° C. […] Cells were returned to the incubator at 37° C. and assayed at 72 hours post transfection.
As a positive control, complexes were delivered using RNAiMAX (Invitrogen Thermo Fisher). CAS9-induced double-strand break formation followed by repair throughout the non-homologous end joining (NHEJ) system was analyzed at 72 hours by the T7E1 assay and quantified using a Fragment Analyzer System. The indel frequencies reported for the EMX1 and HPRT genes are an average of 3 separate experiments. Cytotoxicity was analyzed using the MTT assay.

[6] = system: exogenous eGFP gene reporter in eGFP-U2OS cell line; conditions: 72 h
Method: Both lipofectamine 2000 and RNAiMAX delivery methods were included as controls. eGFP-U2OS cells were cultured in Dulbecco's Modified Eagle's Medium (DMEM), supplemented with 2 mM glutamine, 1% antibiotics (streptomycin 10,000 μg/mL, penicillin, 10,000 IU/mL) and 10% (w/v) foetal calf serum (FCS), at 37° C. in a humidified atmosphere containing 5% CO2. A total of 150,000 cells seeded in a 35 mm dish the day prior to transfection were grown to 50-60% confluence and overlaid with 200 μl of preformed complexes, incubated for 5 min, then 400 μl of DMEM was added. After 20 min incubation at 37° C., 1 mL of fresh DMEM containing 16% FCS was added in order to reach a final FCS concentration of 10%, without removing the overlay of complexes. Cells were returned to the incubator for 72 hours.

JURKAT and K562 cells = test: Toxicity of CPP/CAS9/gRNA complexes in T cell lines (MTT assay); format: cell-based, human; conditions: up to 100 nM, 24 h
Method: A total of 30,000 JURKAT or K562 cells seeded in 24-well plates the day prior to transfection were incubated with increasing concentrations of CPP/CAS9/gRNA complexed at 20:1 molar ratio (CPP to CAS9/gRNA) ranging from 1 nM to 200 nM for 30 min prior to addition of medium to reach a final 10% concentration of FCS. Cytotoxic response was measured 24 hours later by colorimetric MTT assay (Sigma, Germany). For MTT assay, cell culture medium was removed and replaced with PBS containing 2.5 mg/ml of MTT for 4 hours. Results correspond to the average of 3 independent experiments.

[7] = system: endogenous EMX1, AAVS and HPRT genes in Mouse (ESF-158) embryonic stem cells; test: Delivery of multiple RGEN:gRNA complexes: EMX1, AAVS, HPRT editing in mouse ES cells (T7E1); format: cell-based
Method: RNAiMAX delivery method was used as a positive control.
U2OS cells were treated as described previously. H9 embryonic stem cells were cultured in Dulbecco's modified Eagle's medium with 4 mM L-glutamine adjusted to contain 1.5 g/L sodium bicarbonate and 4.5 g/L glucose and supplemented with 0.1 mM 2-mercaptoethanol, 85%; and 15% ES-Cell Qualified fetal bovine serum. […] CAS9-induced double-strand break formation followed by repair through NHEJ was analyzed 72 hr after transfection by T7E1 assay and quantified using Fragment Analyzer System. The deletion (indel) frequencies in EMX1, AAVS and HPRT genes were quantified using T7E1 assay. Data for on-target mutations induced by RGEN:gRNA are reported as an average of 3 separate experiments.

[8] = system: EGFP reporter gene in EGFP-U2OS, EGFP-HEK, EGFP-JURKAT cells; test: EGFP reporter gene disruption from CPP delivery of CAS9:sgRNA (flow cytometry); format: cell-based, human; conditions: for decrease in EGFP expression: CAS9:gRNA 50 nM, CPP:cargo 20:1;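 as to all read-outs here: cells carrying one integrated EGFP reporter received peptide-complexed CAS9 preloaded 1:1 with EGFP sgRNA, cultured 72 h, then EGFP level read by flow cytometry, lipofectamine 2000 and RNAiMAX as positive controls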
Method: Efficacy of CPP-mediated delivery was quantified using a well-established CAS9-induced gene disruption method (Fu et al, 2013, supra), by targeting a specific site in the exogenous EGFP gene reporter in three human cell lines expressing EGFP (GFP-U2OS, EGFP-HEK, EGFP-JURKAT).
Stock solutions of amphipathic peptides were prepared at 1 mg/mL in distilled water and sonicated for 10 min. CAS9 protein was preloaded with purified EGFP sgRNA at a molar ratio of 1:1 and incubated for 10 min prior to forming complexes with the peptides. Preloaded CAS9/gRNA complexes (10 nM, 25 nM, and 50 nM) were mixed with CPPs at 5:1, 10:1 and 20:1 molar ratios of CPP to cargo and incubated for 30 min at 37° C. prior to cell transfection.
Cell line containing a single integrated EGFP reporter gene (GFP-U2OS, EGFP-HEK and EGFP-JURKAT) were cultured in Dulbecco's Modified Eagle's Medium (DMEM), supplemented with 2 mM glutamine, 1% antibiotics (streptomycin 10,000 μg/mL, penicillin, 10,000 IU/mL) and 10% (w/v) foetal calf serum (FCS) at 37° C. in a humidified atmosphere containing 5% CO2. A total of 150,000 cells seeded in a 35 mm dish the day prior to transfection were grown to 50-60% confluence and overlaid with 200 μl of preformed complexes, incubated for 3-5 min, then 400 μl of DMEM was added. After 30 min incubation at 37° C., 1 mL of fresh DMEM containing 16% FCS was added to reach a final FCS concentration of 10%, without removing the overlay of CPP/CAS9-gRNA complexes. Cells were returned to the incubator for 72 hours.
CAS9-induced double-strand break formation was analyzed using flow cytometry by monitoring level of EGFP expression. […] Both lipofectamine 2000 and RNAiMAX delivery methods were used as positive controls.

[9] = system: hPD1 gene in human T cells; test: Simultaneous delivery of CAR plasmid and CAS9/gRNA: hPD1 editing (T7E1); format: cell-based; conditions: for mean indel frequency: two donors
Method: Cells were incubated for 5 min, then 300 μl of serum free RPMI-1640 medium was added. After 30 min, 1.2 mL of full medium was added and serum level was adjusted to 10%. As control, CAS9 loaded with gRNA targeting GFP was used. For comparison with electroporation methods, cells were transfected with the anti-CD-19 CAR plasmid (5 μg) and gRNA/CAS9 (5 μg/10 μg) using Nucleofector 2b (Lonza, Germany) with the Amaxa Human T cells Nucleofector Kit, VPA-1002 (Lonza, Germany).
On day 5, the level of transduced and untransduced cells was analyzed, and cells were transferred to fresh T cell expansion medium. The cultures were analyzed for viability and anti-CD19 CAR expression by flow cytometry. The expression of the anti-CD19 CAR in the T cells was evaluated by flow cytometry using a Protein L assay. […] 7-AAD (Sigma) was used to determine viability. CAS9-induced double-strand break followed by repair through NHEJ system was analyzed by either the T7E1 assay or using the Genome Cleavage Detection kit (GCD Thermo Fisher) and quantified using Fragment Analyzer System. The indel frequency in the target gene was quantified using the T7E1 assay. The cultures were expanded and analyzed for viability, anti-CD19 expression and PD I level every 10 days. T cell expansion medium contained AIM V medium, supplemented with 5% heat-inactivated human AB Serum, 1% Gluta-Max, and 300 IU/mL IL-2.

primary human T cells = test: CAS9 protein expression in primary human T cells after CAS9 mRNA or plasmid delivery (ELISA); format: cell-based; conditions: day 3
Method: T cells were isolated from PBMCs using anti-CD3/anti-CD28 antibodies bound to paramagnetic beads (Dynabeads ClinExVivo CD3/CD28, Invitrogen) at a ratio of 3:1 (beads:cells). The cells and beads were co-incubated for 2 hours at room temperature and CD3^+ cell enrichment was performed using Dynal ClinExVIVO MPC magnet (Thermo Fisher). The anti-CD3/anti-CD28 paramagnetic beads were removed, washed and concentrated. Cells in the CD3^+ fraction were resuspended in activation media at a concentration of 1×10^6 cells/ml with AIM-V medium (Thermo Fishers) supplemented with 10% fetal calf serum, 300 IU/ml IL2 and 50 ng/ml OKT3 (MuromonAB-CD3) for two days.
CPP/CAS9 complexes were formed by mixing the CAS9 mRNA (0.5 μg) with CPP at a 20:1 molar ratio of CPP:CAS9 mRNA and incubating for 30 min at 37° C. prior to cell transfection. CPP/CAS9-expressing plasmid complexes were formed by mixing the CAS9-expressing plasmid (Addgene MLM3639-Plasmid #42252) (0.5 μg) with CPP at a 20:1 molar ratio of CPP:plasmid and incubating for 30 min at 37° C. prior to cell transfection.
Cells were transfected according to the protocol for suspension cells described in Example 13a. RNAiMAX and lipofectamine 2000 lipid-based delivery methods (Invitrogen Thermo Fisher France) were used as controls, and transfections were performed following the manufacturer's instructions. CAS9 protein expression level was analyzed at multiple time points over a period of 10 days as determine by ELISA on protein extracts using antibodies against CRISPR/Cas9 obtained from Diagenode (Diagenode cat. No. C15200223) and ABCAM (clone 7A9-ab191468).

Structure (SMILES): CC(C)C[C@H](NC(=O)[C@H](CCCNC(=N)N)NC(=O)[C@H](Cc1c[nH]c2ccccc12)NC(=O)[C@H](CCCNC(=N)N)NC(=O)[C@H](Cc1c[nH]c2ccccc12)NC(=O)CNC(=O)[C@H](C)NC(=O)[C@H](CO)NC(=O)[C@H](CCCNC(=N)N)NC(=O)[C@H](Cc1c[nH]c2ccccc12)NC(=O)[C@H](CCCCN)NC(=O)CCN)C(=O)N[C@@H](Cc1c[nH]c2ccccc12)C(=O)N[C@@H](CCCNC(=N)N)C(=O)N[C@H](C(=O)N[C@@H](CCCNC(=N)N)C(=O)N[C@@H](CO)C(=O)N[C@@H](Cc1c[nH]c2ccccc12)C(=O)N[C@@H](CO)C(=O)N[C@@H](CCCNC(=N)N)C(=O)O)C(C)C [ADGN-100a]
- toxicity [1]: less than 10%
- CAS9 protein expression (U2OS cells): dose-dependent expression of CAS9 protein
- mean indel frequencies [2]: 45-50%
- formation of stable nanoparticles ([3]; with CAS9-mRNA and CAS9-mRNA/gRNA complex): able to form stable nanoparticles
- Mean diameter ([3]; with CAS9-mRNA and CAS9-mRNA/gRNA): about 75 nm
- formation of stable nanoparticles ([3]; with CAS9-protein and CAS9-protein/gRNA complex): able to form stable nanoparticles
- Mean diameter ([3]; with CAS9-protein and CAS9-protein/gRNA): about 100 nm
- ELISA signal for CAS9 protein expression ([4]; U2OS, K562, HepG2, CAS9 mRNA 0.5 μg): about 25 times the background
- ELISA signal for CAS9 protein expression ([4]; primary human fibroblasts): about 20 times the background
- more potent than RNAiMAX [5]: 3-4 folds
- Mean indel Frequency ± S.E.M ([5]; EMX1, Fibroblasts, 20 nM): 65 ± 4%
- Mean indel Frequency ± S.E.M ([5]; EMX1, Fibroblasts, 50 nM): 67 ± 5%
- Mean indel Frequency ± S.E.M ([5]; EMX1, Fibroblasts, CAS9/sgRNA 10 nM): 61 ± 5%
- Mean indel Frequency ± S.E.M ([5]; EMX1, Hepatocytes, 10 nM): 55 ± 6%
- Mean indel Frequency ± S.E.M ([5]; EMX1, Hepatocytes, 20 nM): 58 ± 5%
- Mean indel Frequency ± S.E.M ([5]; EMX1, Hepatocytes, 50 nM): 61 ± 5%
- Mean indel Frequency ± S.E.M ([5]; HPRT (printed HPR/HPRI), Fibroblasts, 10 nM): 62 ± 5%
- Mean indel Frequency ± S.E.M ([5]; HPRT, Fibroblasts, 20 nM): 68 ± 4%
- Mean indel Frequency ± S.E.M ([5]; HPRT, Fibroblasts, 50 nM): 70 ± 5%
- Mean indel Frequency ± S.E.M ([5]; HPRT, Hepatocytes, 10 nM): 54 ± 6%
- Mean indel Frequency ± S.E.M ([5]; HPRT, Hepatocytes, 20 nM): 56 ± 5%
- Mean indel Frequency ± S.E.M ([5]; HPRT, Hepatocytes, 50 nM): 57 ± 5%
- mean indel frequencies ([5]; primary fibroblasts, 20 nM): more than 60%
- mean indel frequencies ([5]; primary hepatocytes, 20 nM): > 55%
- decrease in EGFP expression ([6]; CAS9 mRNA/gRNA (0.5 μg/5 μg)): 85%
- decrease in EGFP expression ([6]; CAS9 protein/gRNA (2.5 μM/5 μM)): 87%
- toxicity (JURKAT and K562 cells): no toxicity
- Mean indel Frequency ± S.E.M ([7]; AAVS): 71 ± 5%
- Mean indel Frequency ± S.E.M ([7]; EMX1): 75 ± 5%
- Mean indel Frequency ± S.E.M ([7]; HPRT): 70 ± 4%
- reduction of EGFP-positive cells ([8]; EGFP-JURKAT): 81%
- reduction of number of EGFP-expressing cells ([8]; HEK, 1 nM CAS9:gRNA): 62%
- decrease in EGFP expression ([8]; HEK): 86%
- reduction of EGFP-expressing cells / loss of EGFP expression ([8]; JURKAT, 1 nM CAS9:gRNA): 51%
- reduction of number of EGFP-expressing cells ([8]; U2OS, 1 nM CAS9:gRNA): 57%
- decrease in EGFP expression ([8]; U2OS): 87%
- Mean indel Frequency ± s.e.m ([9]; Donor 1, CAS9/sgRNA 2.5 μg/5 μg): 44 ± 5%
- Mean indel Frequency ± s.e.m ([9]; Donor 1, CAS9/sgRNA 5 μg/10 μg): 50 ± 3%
- Mean indel Frequency ± s.e.m ([9]; Donor 2, CAS9/sgRNA 2.5 μg/5 μg): 42 ± 3%
- Mean indel Frequency ± s.e.m ([9]; Donor 2, CAS9/sgRNA 5 μg/10 μg): 51 ± 8%
- mean indel frequency ([9]; 2.5 μg/5 μg CAS9/gRNA): approximately 42%
- mean indel frequency ([9]; 5 μg/10 μg CAS9/gRNA): approximately 50%
- ELISA signal for CAS9 protein expression (primary human T cells; CAS9-expressing plasmid 0.5 μg): about 4 times the background
- ELISA signal for CAS9 protein expression (primary human T cells; CAS9 mRNA 0.5 μg): about 15 times the background
